# Results as given in paper PMC7355684 (Pharmaceutics, 2020).
# Entries after “also recorded” stand apart in the source; their conditions may differ. Like-named read-outs stand apart in the source and are kept apart here. Where a SMILES comes first, the peptide text is derived from it. Side-chain parts run from the residue outwards. The star is where a group is joined. Daunorubicin(13-NOCH2CO) = COc1cccc2c1C(=O)c1c(O)c3c(c(O)c1C2=O)C[C@@](O)(C(C)=NOCC(=O)*)C[C@@H]3O[C@H]1C[C@H](N)[C@H](O)[C@H](C)O1
# Key:
# [1] = system: PANC-1 cells; test: cells; type: cell-based, human
# Procedure: This measurement is based on the registration of electrical resistance (impedance, Z) in alternating current (AC) field. The living cells transplanted to the gold measuring electrodes are physically insulated by phospholipid bilayer that covers them. This instrumentally measurable property changes (decreases) in response to cellular cytotoxic agents. Our measurements were performed on xCELLigence single plate (ACEA Biosciences, San Diego, CA, USA) dedicated for impedimetric analysis of cellular samples at 37 °C and 5% CO2.
# During the initial phase of the experiments—the baseline recording—a special 96-well cell culture plate, E-plate (ACEA Biosciences), equipped with measuring electrodes, was pretreated with freshly prepared cell culture medium (for 60 min; sampling frequency: 1 min). Subsequently, PANC-1 cells were plated at a cell density of 10^4 cells/well. During the 24 h incubation, the cells evenly covered the electrodes at the bottom of the wells of the E-plate. The resulting confluent cell cultures were then treated with the test substances at the following final concentrations: 10^−6, 10^−5, 10^−4 M. Total treatment duration was 72 h and the sampling rate was 1 min (0–24 h); and then 15 min (48–72 h). In our measurements, three replicates were used, the control was the drug-free medium. […] The CI results were analyzed with xCELLigence RTCA 2.0 software and Origin Pro 8.0 software.
# [2] = system: Colo-205 cells; type: cell-based, human
# Procedure: (§1) EBC-1 and Colo-205 model cells have weak/negligible adherent properties, and A2058 cells could not produce constant cell index values. Therefore, a colorimetric assay (alamarBlue-assay) was chosen instead of the xCELLigence system to investigate the viability of these model cells treated with the conjugates. Due to the growth characteristics of NHDF cells, alamarBlue-assay was performed also on this cell line.
# (§2) The protocol for the alamarBlue-assay was similar to the method which was published earlier, with some minor modifications. Briefly, the cell seeding occurred on 96-well cell culture plates (Sarstedt AG, Nümbrecht, Germany) at 10^4 cells/well concentration. After a 24 h long culturing period, the treatment was carried out with the conjugates at 10^−4, 10^−5 and 10^−6 M final concentrations for 24, 48 and 72 h. In the next steps, the alamarBlue reagent (0.15 mg/mL, Sigma-Aldrich) dissolved in phosphate-buffered saline (PBS; pH = 7.2), was added to the wells. After 6 h incubation with the reagent, the fluorescence intensity of the samples was obtained by an LS-50B Luminescence Spectrometer (Perkin Elmer Ltd., Buckinghamshire, UK) or a Fluoroskan^TM FL Microplate Fluorometer and Luminometer (Thermo Scientific, Waltham, MA, USA) by using the following settings: λex = 560 nm and λem = 590 nm.
# (§3) Three parallels were performed per treatment group. In the case of controls, an equivalent volume of cell culture media was added to the cell. Fluorescence intensities of the samples treated with various concentrations of conjugates were expressed as a percentage of the fluorescence of control.
# [3] = system: A2058 cells; type: cell-based, human
# Procedure: as §1, §2, §3
# [4] = system: EBC-1 cells; type: cell-based, human
# Procedure: as §1, §2, §3
# [5] = Lysosomal degradation of conjugates by LC-MS; type: in vitro ADME; conditions: rat liver lysosome homogenate, 0.2 M NaOAc pH 5.03, 0.025 μg/μL conjugate, 37 °C; for Time to complete lysosomal degradation: sampling up to 72 h
# Procedure: For the stability and metabolism studies of the conjugates, liquid chromatography–mass spectrometry (LC-MS) analyses were performed on a Q ExactiveTM Focus, high resolution and high mass accuracy, hybrid quadrupole-orbitrap mass spectrometer (Thermo Fisher Scientific, Bremen, Germany) using on-line UHPLC coupling. UHPLC separation was performed on a Dionex 3000 UHPLC system using a Supelco Ascentis C18 column (2.1 × 150 mm, 3 µm). Linear gradient elution (0 min 2% B, 1 min 2% B, 17 min 90% B) with eluent A (0.1% HCOOH in water, v/v) and eluent B (0.1% HCOOH in acetonitrile/water, 80:20, v/v) was used at a flow rate of 0.2 mL/min at 40 °C. High-resolution mass spectra were acquired in the 200–1600 m/z range. LC-MS data were analyzed by XcaliburTM software (Thermo Fisher Scientific) and with Origin Pro 8 (OriginLab Corp., Northampton, MA, USA).
# Conjugates were dissolved in distilled water in 2.5 μg/μL concentration followed by dilution with 0.2 M NaOAc solution (pH = 5.03) to 0.025 μg/μL. The lysosome-homogenate was prepared from rat liver and contained proteins in 16.6 μg/μL concentration. An aliquot (20 μL) of this stock solution was further diluted with […] 0.2 M NaOAc solution, therefore the final protein concentration was 0.83 μg/μL. To prepare the reaction mixture, 15 μL (0.83 μg/μL) lysosome homogenate was added to 500 μL (0.025 μg/μL) conjugate solution. Furthermore, a control reaction mixture was always prepared which contained 500 μL conjugate solution and 15 μL NaOAc solution only. The solutions were stirred on 600 rpm at 37 °C and samples (50 μL) were taken out at 0 min, 5 min, 15 min, 30 min, 1 h, 2 h, 6 h, 24 h, and 72 h. The enzymatic activity was quenched by adding 5 μL formic acid to the samples. After this procedure, samples were frozen immediately at −25 °C. Control samples were taken at 0 min, 15 min, 1 h, 6 h, 24 h and 72 h. Composition of the samples was determined by HPLC-MS as described above.
# [6] = lysosome-homogenate prepared from rat liver, in 0.2 M NaOAc solution (pH = 5.03); conditions: 37 °C, up to 72 h
# [7] = PANC-1, impedimetry, cell index normalized to control wells, 10^−5 M, mean ± SD, n = 3
# [8] = alamarBlue fluorescence normalized to control wells, 10^-5 M, mean ± SD, n=3
compound,measurement,setting,value
"COc1cccc2c1C(=O)c1c(O)c3c(c(O)c1C2=O)C[C@@](O)(C(C)=NOCC(=O)N[C@@H](CO)C(=O)N[C@@H](CCCCN)C(=O)N[C@@H](C)C(=O)N[C@@H](C)C(=O)N[C@@H](CCCCN)C(=O)N[C@@H](CC(N)=O)C(=O)O)C[C@@H]3O[C@H]1C[C@H](N)[C@H](O)[C@H](C)O1 [conjugate 1, Dau=Aoa-SKAAKN-OH] ({Daunorubicin(13-NOCH2CO)}-SKAAKN-OH)",Viability after 24 h treatment at 10^−4 M (initial CI increase),"[1]; 24 h, 1e-4 M",224.1 ± 18.73%
same,"Viability (%) at 10^−5 M Concentration, After 72 h Incubation",[1]; 1e-5 M,112.5 ± 5.1%
same,"Viability (%) at 10-5 M concentration, after 72 h incubation, Colo-205",[2]; 1e-5 M,50.7 ± 1.6%
same,"Viability (%) at 10-5 M concentration, after 72 h incubation, A2058",[3]; 1e-5 M,61.5 ± 2.7%
same,"Viability (%) at 10-5 M concentration, after 72 h incubation, EBC-1",[4]; 1e-5 M,77.8 ± 1.0%
"COc1cccc2c1C(=O)c1c(O)c3c(c(O)c1C2=O)C[C@@](O)(C(C)=NOCC(=O)N[C@@H](CCCCN)C(=O)N[C@@H](CO)C(=O)N[C@@H](CCCCN)C(=O)N[C@@H](C)C(=O)N[C@@H](C)C(=O)N[C@@H](CCCCN)C(=O)N[C@@H](CC(N)=O)C(=O)O)C[C@@H]3O[C@H]1C[C@H](N)[C@H](O)[C@H](C)O1 [conjugate 2, Dau=Aoa-KSKAAKN-OH] ({Daunorubicin(13-NOCH2CO)}-KSKAAKN-OH)",Speed of lysosomal degradation (in words),[5],very fast
"COc1cccc2c1C(=O)c1c(O)c3c(c(O)c1C2=O)C[C@@](O)(C(C)=NOCC(=O)NCC(=O)N[C@@H](Cc1ccccc1)C(=O)N[C@@H](CC(C)C)C(=O)NCC(=O)N[C@@H](CCCCN)C(=O)N[C@@H](CO)C(=O)N[C@@H](CCCCN)C(=O)N[C@@H](C)C(=O)N[C@@H](C)C(=O)N[C@@H](CCCCN)C(=O)N[C@@H](CC(N)=O)C(=O)O)C[C@@H]3O[C@H]1C[C@H](N)[C@H](O)[C@H](C)O1 [conjugate 3, Dau=Aoa-GFLG-KSKAAKN-OH] ({Daunorubicin(13-NOCH2CO)}-GFLGKSKAAKN-OH)","Viability (%) at 10^−5 M Concentration, After 72 h Incubation",[1]; [7],105.1 ± 1.9%
same,Time to complete lysosomal degradation,[5],≤ 1 h
same,"Viability (%) at 10-5 M concentration, after 72 h incubation, Colo-205",[2]; [8],59.3 ± 3.6%
same,"Viability (%) at 10-5 M concentration, after 72 h incubation, A2058",[3]; [8],79.4 ± 17.6%
same,"Viability (%) at 10-5 M concentration, after 72 h incubation, EBC-1",[4]; [8],76.2 ± 13.7%
"COc1cccc2c1C(=O)c1c(O)c3c(c(O)c1C2=O)C[C@@](O)(C(C)=NOCC(=O)NCC(=O)N[C@@H](Cc1ccccc1)C(=O)N[C@@H](CC(C)C)C(=O)NCC(=O)NCCCC[C@H](NC(=O)CNC(=O)[C@H](CC(C)C)NC(=O)[C@H](Cc1ccccc1)NC(=O)CNC(=O)CON=C(C)[C@]1(O)Cc2c(O)c4c(c(O)c2[C@@H](O[C@H]2C[C@H](N)[C@H](O)[C@H](C)O2)C1)C(=O)c1c(OC)cccc1C4=O)C(=O)N[C@@H](CO)C(=O)N[C@@H](CCCCN)C(=O)N[C@@H](C)C(=O)N[C@@H](C)C(=O)N[C@@H](CCCCN)C(=O)N[C@@H](CC(N)=O)C(=O)O)C[C@@H]3O[C@H]1C[C@H](N)[C@H](O)[C@H](C)O1 [conjugate 5, Dau=Aoa-GFLG-K(Dau=Aoa-GFLG)SKAAKN-OH] ({Daunorubicin(13-NOCH2CO)}-GFLGK([Gly-Leu-Phe-Gly-Daunorubicin(13-NOCH2CO)])SKAAKN-OH)","Viability (%) at 10^−5 M Concentration, After 72 h Incubation",[1]; [7],31.3 ± 1.8%
same,Viability after 24 h,"[1]; PANC-1, impedimetry, 10^−5 M, 24 h (Figure 1A)",34%
same,Time to complete lysosomal degradation,[5],> 72 h
same,"Viability (%) at 10-5 M concentration, after 72 h incubation, Colo-205",[2]; [8],45.8 ± 2.6%
same,"Viability (%) at 10-5 M concentration, after 72 h incubation, A2058",[3]; [8],61.9 ± 11.6%
same,"Viability (%) at 10-5 M concentration, after 72 h incubation, EBC-1",[4]; [8],57.6 ± 11.1%
COc1cccc2c1C(=O)c1c(O)c3c(c(O)c1C2=O)C[C@@](O)(C(C)=NOCC(=O)N[C@@H](CO)C(=O)N[C@@H](CCCCN)C(=O)N[C@@H](C)C(=O)N[C@@H](C)C(=O)N[C@@H](CCCCN)C(=O)N[C@@H](CC(N)=O)C(=O)O)C[C@@H]3O[C@H]1C[C@H](N)[C@H](O)[C@H](C)O1 [conjugates 1] ({Daunorubicin(13-NOCH2CO)}-SKAAKN-OH),Speed of lysosomal degradation (in words),[5],very fast
Dau=Aoa-GFLG-K(Dau=Aoa-GFLG)SKAAKN-OH,fragment found,[6],"Dau=Aoa-G-OH, minor; also recorded: Dau=Aoa-GF-OH; also recorded: Dau=Aoa-GFL-OH; also recorded: H-K(Dau=Aoa-GFLG)SK-OH; also recorded: H-K(Dau=Aoa-GFLG)SKAA-OH; also recorded: H-K(Dau=Aoa-GFLG)SKAAKN-OH"
Dau=Aoa-GFLG-KSKAAKN-OH,fragment found,[6],"Dau=Aoa-GFL-OH; also recorded: Dau=Aoa-GFLGK-OH; also recorded: Dau=Aoa-GFLGKSK-OH, first_seen, 0 min; also recorded: Dau=Aoa-GFLGKSKAA-OH, first_seen, 0 min; also recorded: Dau=Aoa-G-OH, 30 min; also recorded: Dau=Aoa-GF-OH, major, 30 min"
Dau=Aoa-KSKAAKN-OH,fragment found,[6],"Dau=Aoa-K-OH, minor, 30 min; also recorded: Dau=Aoa-KS-OH, 15 min; also recorded: Dau=Aoa-KSK-OH"
Dau=Aoa-SKAAKN-OH,fragment found,[6],"Dau=Aoa-S-OH, 0 min; also recorded: Dau=Aoa-SK-OH, 0 min"
